# Measured values from patent publication US4020111A, “Propynyloxy alkyl arene insecticides” (priority 1975, dated 1977).
# Columns and labels:
# mice [1] = test: acute toxicity of Dimetilan alone and of synergist alone (intraperitoneal); format: in vivo, Swiss albino white male mice; conditions: synergist alone 1000 mg/kg ip, 72 hours, of eight mice
# Description: To determine the acute toxicity of dimetilan alone, eight dosage levels of Dimetilan, ranging from 4 to 32 mg per kg wer applied to eight, Swiss, albino, white, male mice per dosage level. The mice weighed approximately 23 to 27 grams and were five to size weeks old. The Dimetilan was administered intraperitoneally in 0.1 ml of corn oil one hour after the administration of the same dose of corn oil alone.
# To determine the acute toxicity of the synergist alone, various synergists were administered intraperitoneally at a dose of 1000 mg/kg to each of a group of eight mice. The number of animals dead at the end of 72 hours is reported in the left hand column of Table XXXXVI.
# mice [2] = test: extension of Noludar sleeping time by synergists; format: in vivo, Swiss albino white male mice; conditions: Noludar 110 mg/K, synergist 110 mg/K; for Relative Sleeping Time: treated/control
# Description: (§1) The selectivity of the synergist compounds of this invention is illustrated by the results of sleeping-time extension tests and of acute toxicity tests on Swiss albino white male mice.
# (§2) The effect of various synergist compounds on sleeping time of sodium secobarbital [Secobarbital] and of 3,3-diethyl-5-methyl-2,4-dioxypiperidine [Noludar] was determined by administering the drug, with and without synergist, to approximately 38-day old male mice weighing from 25 to 30 grams. Synergists were administered in each of two doses, 74.0 mg/kg (dilution being 2.0 mg/0.1 ml corn oil), and 110.0 mg/kg (dilution 3.0 mg/0.1 ml oil). Secobarbital was administered at a dose of 37.0 mg/kg (dilution 1.0 mg/0.1 ml water). Noludar was administered at a dose of 110.0 mg/kg (dilution 3.0 mg/0.1 ml water). The synergist was administered one hour prior to administration of the Secobarbital or Noludar. Secobarbital and Noludar sleeping times were obtained for both the control (drug only) and the treated (synergist plus drug) mice by noting the time lapse between the administration of the drug and the recovery of the righting reflex, i.e. when the animal regains conciousness and can walk up an inclined wooden tray with coordination. The relative sleeping time (R.S.) was noted. The R.S. is the extended sleeping time in the treated mice (synergist plus drug) divided by the sleeping time in the control mice (drug only). The mean sleeping time for the treated mice and the R.S. are shown on Table XXXXIV for various synergist compounds.
# mice [3] = test: synergism of acute toxicity of Dimetilan, GS 13005, Secobarbital and Methadone (intraperitoneal); format: in vivo, Swiss albino white male mice; conditions: for number of mice dead: 48 hours, of eight mice
# Description: The synergism of the acute toxicity of Dimetilan by various synergists was determined by tests on Swiss albino, white male mice aged 5 to 6 weeks and weighing 23 to 27 grams. The synergists and insecticides were dissolved in corn oil and the drugs were dissolved in distilled water. All compounds were administered intraperitoneally by injection in the lower quadrent of the abdomen. The synergist was administered in 0.1 ml of corn oil 1 hour prior to administration of the insecticide. Eight mice were treated, per dosage, with each synergist. The mice were watched for a minimum of 6 hours while held in a glass jar with bedding individually after intraperitoneal injection of the test solutions. Lethality was noted, the animals were weighed and transferred in cages, and food and water were supplied. Control mice were given 0.1 ml of corn oil at the time of administration of the synergist to the test mice and 0.1 ml corn oil plus Dimetilan at the time of administration of the insecticide to the test mice.
# By the same procedure, the synergism of acute toxicity of GS 13005, Secobarbital and 6-dimethylamino-4,4-diphenyl-3-heptanone [Methadone] was determined.
# mice [4] = test: extension of Secobarbital sleeping time by synergists; format: in vivo, Swiss albino white male mice; conditions: Secobarbital 37 mg/K; for Relative Sleeping Time: treated/control
# Description: as §1, §2
# [5] = tested on: IN/WHO strain house flies; test: topical application test, percent kill after 24 hours, IN/WHO strain; format: in vivo, house fly (susceptible IN/WHO strain)
# Description: (§3) In Table IX, and in the tables following it, the doses of topically applied insecticides and of synergists unless otherwise noted are expressed as micrograms per fly (μg/fly).
# The synergistic effect of O-(2-propynyl) oximes with mobam was determined from topical application tests on susceptible, female, IN/WHO strain house flies and from tests on resistant, female, Rutgers A strain house flies. The synergist and insecticide were dissolved in ACS Grade acetone in such quantities that a 1.0μ liter volume applied to the thorax of 3-to-5 day old CO2 -anesthetized female adult house flies contained the desired dosage. After being treated, the flies were confined, 10 to a plaster petri dish, with 3-5 dishes/treatment, and held for 24-hr. observation of mortality. Reconstituted skim milk on cotton dental wicks was provided during the holding period. The percent kills after 24 hours are shown in Table X for the IN/WHO strain and Table XI for the Rutgers A strain.
# The synergistic effect of benzyl 2-propynyl ethers with mobam was determined from topical application tests on IN/WHO and Rutgers A strain houseflies, following the procedure of Example 5. The percent kills after 24 hours are shown in Table XIV for the IN/WHO strain and in Table XV for the Rutgers A strain.
# The effects of varying the insecticide dose and the synergist-insecticide ratio are further illustrated, with synergist compounds II-D, II-E, II-F and Mobam insecticide, in Tables XVI, XVII and XVIII.
# The synergistic effect on IN/WHO flies of synergist compound II-K with Dimetilan, pyrolan, Baygon and HRS 1422 is illustrated by the 24 hour percent mortality data in Tables XIX, XX and XXI.
# The effect on IN/WHO flies of synergist compound IV-C, identified in Table IV, with mobam was determined by the topical application procedure of Example 5.
# The synergistic effect with Diazinon of compounds I-B, I-D, I-F, I-G, I-H and I-I, identified in Tables I and Ia, was determined from topical application tests on IN/WHO strain houseflies and on Rutgers A strain houseflies by the procedure of Example 5. The percent kills after 24 hours are shown in Table XXV for the IN/WHO strain and Table XXVI for the Rutgers A strain.
# (§4) The synergistic effect with GS 13005 of compounds I-A, I-B, I-D, I-E, I-F, I-G and I-I was determined from topical application tests to IN/WHO strain, Rutgers A strain and polyvalent CH strain houseflies using the procedures of Example 5. The percent kills of the IN/WHO strain flies after 24 hours are shown in Table XXVIII; of the Rutgers A strain, in Table XXIX; and of the polyvalent CH strain, in Table XXX. The doses of insecticide alone to the CH strain files caused 10-40% mortality.
# (§5) The synergistic effect with Diazinon and GS 13005 of various of the benzyl 2-propynyl ethers identified in Tables II and IIa was determined by topical application tests on IN/WHO strain, and Rutgers A strain and polyvalent, resistant, CH strain houseflies using the procedures of Example 5. The percent kills after 24 hours of IN/WHO strain flies are shown in Table XXXI; of Rutgers A strain flies, in Table XXXII; and of CH strain flies, in Table XXXIII. The doses of insecticide alone to the CH strain flies caused 10-40% mortality.
# The synergist effect on IN/WHO flies of synergist compound II-K with Gardona and Bidrin is illustrated by the 24 hour percent mortality data in Tables XXXIV and XXXV.
# The synergistic effect on IN/WHO strain flies and Rutgers A strain flies of compound IV-C with GS 13005 and with Diazinon was determined by the topical application procedure of Example 5. The percent kills of IN/WHO strain flies after 24 hours are shown in Tables XXXVI and XXXVII; the percent kills of Rutgers A strain flies are shown in Tables XXXVIII and XXXIX.
# [6] = tested on: Wilson strain house flies; format: in vivo, house fly (susceptible Wilson strain); conditions: for Contact Synergistic Ratio, Carbaryl (LC50 insecticide alone / LC50 with synergist): in vivo; for Contact Synergistic Ratio, Pyrolan (LC50 insecticide alone / LC50 with synergist): synergist to insecticide 5:1 by weight, 24 h
# Description: The required solutions of the insecticide and of the synergist compound were prepared in acetone at a concentration of one milligram per milliliter. One-pint wide mouth glass jars were coated wiith the appropriate insecticide-synergist combination by rolling the jars containing aliquots of the appropriate solutions diluted to three milliliters with acetone to deposit, by evaporation, a film of the test materials. The flies were transferred under carbon dioxide anesthesia and held in the jar at room temperature. Perforated aluminum foil was used to cover the jars and to hold cotton saturated with 10% sugar solution. Counts were made at intervals, but the recorded mortality was based on 24-hour kill, rather than knockdown. All prostrate nonmoving flies were considered dead. A determination was then made of the contact synergistic ratio [SR], which is the ratio of the LC50 of insecticide alone to the LC50 of the insecticide when applied together with the synergist. The LC50 of the insecticide was estimated from a log-probit plot of percent kill versus dosage. […] The LC50 of the combination of insecticide and synergist was determined at a synergist to insecticide parts by weight ratio of five to one.
# [7] = tested on: polyvalent resistant (CH strain) houseflies; test: whole plant or invertebrate; format: in vivo, housefly (CH strain); conditions: Musca domestica, topical, 24 h
# Description: The effect of O-(2-propynyl) oximes with Dimetilan and with GS 13798 was obtained from tests on polyvalent resistant (CH strain) houseflies that had been chilled and to the dorsal region of which was applied an acetone solution of synergist and insecticide at a ratio of two to one. Duplicate tests were performed using 10 four to five-day old female houseflies per test. After dosage, the flies were put in a plastic petri dish with cotton soaked in a sugar-water solution. These doses of insecticide used without synergist caused 10-40% mortality.
# as §3
# The effect of compounds II-C, II-D and II-E with Dimetilan and GS 13798 was determined, following the procedure of Example 5, from tests on polyvalent resistant (CH strain) houseflies. These doses of insecticide used without synergist caused 10-40% mortality.
# as §4, §5
# The synergistic effect with pyrethrum of various synergist compounds was determined by topical application tests on polyvalent, resistant CH strain houseflies following the procedure of Example 5. Application of the insecticide alone caused 10-40% mortality.
# [8] = Dimetilan 8 mg/kg + synergist 80 mg/kg ip
# [9] = Dimetilan 8 mg/kg + synergist 240 mg/kg ip
Structure (SMILES),Relative Sleeping Time (mice [2]),number of mice dead (mice [3]; [9]),Relative Sleeping Time (mice [4]; synergist 110 mg/K),Mean Sleeping Time (mice [2]),"Contact Synergistic Ratio, Carbaryl (LC50 insecticide alone / LC50 with synergist) [6]","Contact Synergistic Ratio, Pyrolan (LC50 insecticide alone / LC50 with synergist) [6]",other results
"CCOCCOCCOC(C)Oc1ccc2c(c1)OCO2 (stereo not shown) [Sesoxane, reference compound]",3.1,8,8.3,,,,number of mice dead (mice [1]): 1; number of mice dead (mice [3]; [8]): 8; mice lethality (number dead) (mice [3]; GS 13005 71 mg/kg + synergist 213 mg/kg): 0; mice lethality (number dead) (mice [3]; Methadone 32 mg/kg + synergist 215 mg/kg): 5; mice lethality (number dead) (mice [3]; Secobarbital 90 mg/kg + synergist 215 mg/kg): 6; Relative Sleeping Time (mice [4]; synergist 74 mg/K): 6.1
"Cc1cc(OC(=O)N(C)C)n(-c2ccccc2)n1 [Pyrolan, 3-methyl-1-phenyl-5-pyrazolyl-N-dimethylcarbamate, reference compound]",,,,,,,"24 hour percent mortality ([5]; Pyrolan alone 0.63 μg/fly): 0%; 24 hour percent mortality ([5]; Pyrolan alone 1.3 μg/fly): 3%; 24 hour percent mortality ([5]; Pyrolan alone 2.5 μg/fly): 10%; 24 hour percent mortality ([5]; Pyrolan alone 5.0 μg/fly): 43%; LC50 of insecticide alone ([6]; insecticide alone, 24-hour kill): 0.15 mg/jar"
"CCOP(=S)(OCC)Oc1cc(C)nc(C(C)C)n1 [Diazinon, O,O-diethyl O-(2-isopropyl-4-methyl-6-pyrimidyl) phosphorothioate, reference compound]",,,,,,,"percent kill after 24 hours ([5]; Diazinon alone 0.03 μg/fly, 1440 min): 5%; mortality at 5 µg/fly ([7]; read-out: mortality, insecticide alone): 10 to 40%"
C#CCOCc1cc(Cl)c(Cl)cc1Cl [II-F],1.3,0,1.0,38 min,150,15,"percent mortality 24 hours ([5]; Mobam 0.13 μg/fly, synergist/insecticide 5/1): 23%; Mean Sleeping Time (mice [4]; synergist 110 mg/K): 46 min"
C#CCn1ncc2ccc(Cl)cc21 [III-D],1.5,1,1.2,45 min,250,25,Mean Sleeping Time (mice [4]; synergist 110 mg/K): 55 min
"C#CCOC(c1ccc(Cl)cc1Cl)C(C)[N+](=O)[O-] (stereo not shown) [IV-A, 2-propynyl 1-(2,4-dichlorophenyl)-2-nitropropyl ether]",2.7,7,,78 min,134,10,number of mice dead (mice [3]; [8]): 4; Mean Sleeping Time (mice [4]; synergist 74 mg/K): 56 min; Relative Sleeping Time (mice [4]; synergist 74 mg/K): 2.3
"CNC(=O)Oc1cccc2ccc(C)nc12 [GS 13798, 8-(2-methylquinolyl)-N-methylcarbamate, reference compound]",,,,,,,"mortality at 1 µg/fly ([7]; read-out: mortality, insecticide used without synergist): 10 to 40%"
